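96-well plates; 48 h exposure; 5 concentrations. Endpoints by linear interpolation between flanking doses. Not reached: highest tested concentration assigned. TGI denotes the concentration required for complete inhibition of growth.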
Tests used:
Assay in all cases: NCI anticancer screen, dose series, 48 h
COLO 205 colon = tested on: COLO 205 colon
CAKI-1 renal = tested on: CAKI-1 renal
SN12C renal = tested on: SN12C renal
LOX IMVI melanoma = tested on: LOX IMVI melanoma
HCT-116 colon = tested on: HCT-116 colon
DU-145 prostate = tested on: DU-145 prostate
MCF7 breast = tested on: MCF7 breast
SK-MEL-2 melanoma = tested on: SK-MEL-2 melanoma
UACC-62 melanoma = tested on: UACC-62 melanoma
SK-OV-3 ovarian = tested on: SK-OV-3 ovarian

Row | SMILES | TGI (COLO 205 colon) [µM] | TGI (CAKI-1 renal) [µM] | TGI (SN12C renal) [µM] | TGI (LOX IMVI melanoma) [µM] | TGI (HCT-116 colon) [µM] | TGI (DU-145 prostate) [µM] | TGI (MCF7 breast) [µM] | TGI (SK-MEL-2 melanoma) [µM] | TGI (UACC-62 melanoma) [µM] | TGI (SK-OV-3 ovarian) [µM]
1 | CSc1c(C(C)=O)c(O)n(-c2ccc(C)cc2)c(=O)c1C#N | > 100 | > 100 | > 100 | > 100 | > 100 | > 100 | > 100 | > 100 | > 100 | > 100
2 | O=C1c2cc3c(cc2NC(c2ccccc2F)C1O)OCO3 (stereo not given) | > 39.8 | > 77.8 | > 66.9 | > 100 | > 35.7 | > 100 | > 100 | > 100 | 64 | 51.1
3 | CO[C@@]12C[C@H](CNC(=O)c3ccc[nH]3)O[C@@H]1NC(=O)N2 | > 100 | > 100 | > 100 | > 100 | > 100 | > 100 | > 100 | > 100 | > 100 | > 100
4 | COCN1C(=O)[C@@H]2CCCN2C(=O)c2ccc(N)cc21 | > 100 | > 100 | > 100 | > 100 | > 100 | > 100 | > 100 | > 100 | > 100 | > 100
5 | CC1CC(=O)N(N(C)C)C2(C#N)C(=O)N=C(N)C12C#N (stereo not given) | > 100 | 48.3 | > 100 | > 100 | > 100 | > 100 | > 100 | > 100 | > 100 | > 100
6 | CC(=O)OC1CCn2c1nc1cc([N+](=O)[O-])c(C)cc12 (stereo not given) | > 100 | > 100 | > 100 | > 100 | > 100 | > 100 | > 100 | > 100 | > 100 | > 100
7 | CC(=O)OCC1OC(OCCCOP(=O)(OCCC#N)OCC2OC(n3cnc4c(N)ncnc43)C(OC(=O)c3ccccc3)C2OC(=O)c2ccccc2)C(OC(C)=O)C(OC(C)=O)C1OC(C)=O (stereo not given) | > 100 | > 100 | > 100 | > 100 | > 100 | > 100 | > 100 | > 100 | > 100 | > 100
8 | CCN(CC)c1c(C(C)(C)C)c(=O)n2ccsc2c1OC(C)=O | 31.8 | 33.1 | 32.6 | 31.4 | 26.5 | 38.7 | 28.9 | 31 | 34.5 | 36
9 | CCOP1(=O)CC(C)=C(Cl)C(OC)C1 (stereo not given) | > 100 | > 100 | > 100 | > 100 | > 100 | > 100 | > 100 | > 100 | > 100 | > 100
10 | COC(=O)[C@@H]1c2c(oc3cc(CO)cc(O)c3c2=O)C=C[C@H]1O | 29 | 22.4 | 23.6 | 12.4 | 5.98 | 11.7 | 12 | 28.9 | 25 | 35.4
11 | Nc1nc(N)c2nc(CN(C=O)c3ccc(C(=O)O)cc3)cnc2n1 | > 100 | > 100 | > 100 | > 100 | > 100 | > 100 | > 100 | > 100 | > 100 | > 100

From PubChem BioAssay (NCI)
